Measurements from ChEMBL document CHEMBL3734670, “Synthetic spirocyclic endoperoxides: new antimalarial scaffolds” (Medchemcomm, 2015).

Legend:
Plasmodium falciparum [1] = assay: Antiplasmodial activity against chloroquine-sensitive Plasmodium falciparum D10 infected in human A positive erythrocyte assessed as inhibition of parasite growth after 72 hrs by parasite lactate dehydrogenase assay; format: functional, organism-based; conditions: D10, 72 h
Plasmodium falciparum [2] = assay: Antiplasmodial activity against chloroquine-resistant Plasmodium falciparum W2 infected in human A positive erythrocyte assessed as inhibition of parasite growth after 72 hrs by parasite lactate dehydrogenase assay; format: functional, organism-based; conditions: W2, 72 h
Mus musculus = assay: Toxicity against BALB/c mouse infected with chloroquine-sensitive Plasmodium berghei ANKA at 100 mg/kg, ip qd for 5 days; format: organism-based; conditions: in vivo, 120 h
Plasmodium berghei = assay: Antimalarial activity against chloroquine-sensitive Plasmodium berghei ANKA erythrocytic stage infected in BALB/c mouse assessed as reduction in parasitaemia at 100 mg/kg, ip qd after 5 days by Peters 4 days test; format: functional; set-up: scale not given: the % may be the effect or the level left
[3] = Cytotoxicity against mouse NIH/3T3 cells assessed as cell viability after 24 hrs by neutral red uptake assay; format: cell-based, NIH3T3; conditions: read-out: TC50

Row | SMILES | IC50 (Plasmodium falciparum [1]) | IC50 (Plasmodium falciparum [2]) | Activity (Mus musculus) | Activity (Plasmodium berghei) | CC50 at 24 h [3]
1 | C[C@@]12CCO[C@@H]1OO[C@@](C)(C1CCCCC1)C2 (mixture of isomers) | 390 nM | 140 nM | – | – | –
2 | C[C@@]1(CC23CC4CC(CC(C4)C2)C3)C[C@]2(C)CCO[C@@H]2OO1 (mixture of isomers) | 850 nM | 390 nM | – | – | –
3 | C[C@@]12CCO[C@@H]1OO[C@@](C)(C1CCCC1)C2 (mixture of isomers) | 1200 nM | 800 nM | – | – | –
4 | C[C@@]12CCO[C@@H]1OOC1(C2)C2CC3CC(C2)CC1C3 (mixture of isomers) | 610 nM | 160 nM | Non-toxic | 72.5% | 150000 nM
5 | C1CCC2(CC1)OO[C@H]1CCCC[C@H]12 (racemic) | 7200 nM | 3200 nM | – | – | –
6 | C[C@@]12CCO[C@@H]1OOC21CCCCC1 (racemic) | 8500 nM | > 25000 nM | – | – | –
7 | C[C@@]12CCO[C@@H]1OOC1(CCCCC1)C2 (racemic) | 5300 nM | 1100 nM | – | – | –
8 | C[C@@]12CCO[C@@H]1OOC1(CCCCC1)CC2 (racemic) | > 20000 nM | > 17000 nM | – | – | –
9 | C[C@@]12CCO[C@@H]1OOC1(CCCC1)C2 (racemic) | 840 nM | 470 nM | – | – | –
10 | C[C@@H]1CC[C@H]2[C@@H](C)C(=O)O[C@@H]3O[C@@]4(C)CC[C@@H]1[C@]32OO4 [ARTEMISININ] | – | 12 nM | – | – | –
